One experiment deals with T1, human CB-2 receptor (Homo sapiens, UniProt P34972).
T1 construct: expressed in transfected cells; host or cells: SK-N-MC cells, pcDNA3 CB-2 (human), semi-purified membranes
The experiment can be described thus: Binding assay, cannabinoid CB2 receptor ([3H]-CP-55,940 displacement). To be noted: read-out: CB2 binding percent inhibition; for inhibition at 1 µM: test concentration 1 μM (superscript b). Here is the method: (§1) Binding Assay for CB1 or CB2 Agonists or Inverse Agonists
(§2) The human CB-1 and CB-2 receptors were stably expressed in SK-N-MC cells transfected with pcDNA3 CB-1 (human) or pcDNA3 CB-2 (human). The cells were grown in T-180 cell culture flasks under standard cell culture conditions at 37° C. in a 5% CO2 atmosphere. The cells were harvested by trypsinization and homogenized in a homogenization buffer (10 mM Tris, 0.2 mM MgCl2, 5 mM KCl, with protease inhibitors aprotinin, leupeptin, pepstatin A and bacitracin) and centrifuged (2000 g). The supernatant was then centrifuged in 2M sucrose (31,300 g) to produce a semi-purified membrane pellet. The pellet was resuspended in homogenization and store at −80° C.
(§3) On the day of the assay, the pellet was thawed on ice and diluted in assay buffer (50 mM Tris-HCl, 5 mM MgCl2, 2.5 mM EDTA, 0.5 mg/mL fatty acid free bovine serum albumin, pH 7.5). The diluted membrane was added with buffer, test compound or standard and the radioligand [H]^3+-CP-55,940_(0.2 nM) to the wells of a 96-well polypropylene plate. Non-specific binding was measured in wells containing 10 uM WIN 55,212. The plate was covered and incubated for 90 minutes at 30° C. The contents were then aspirated onto a Packard Unifilter G/C filter bottom plate prewet with 0.5% polyethyleneimine. The wells of the polypropylene plate were rinsed and aspirated seven times with a 0.9% saline-0.5% Tween 20 solution. The Unifilter plate was dried, a scintillation cocktail was added to each well and the counts representing binding were quantitated in a TopCount scintillation counter.
(§4) The IC50 binding values for compounds tested were calculated by linear regression and were obtained from studies in which varying compound concentrations were used. Where an IC50 was not obtained, test results are provided as percent inhibition at a test concentration of ^a0.2 μM, ^b1 μM or ^c10 μM.

For the next experiment, the target named is human CB1 receptor (Homo sapiens, UniProt P21554). Put plainly: Binding assay, cannabinoid CB1 receptor ([3H]-CP-55,940 displacement). On the set-up: expressed in transfected cells; host or cells: SK-N-MC cells, pcDNA3 CB-1 (human), semi-purified membranes. To be noted: for inhibition at 0.2 µM: test concentration 0.2 μM (superscript a); for inhibition at 1 µM: test concentration 1 μM (superscript b). Here is the method:
as §1, §2, §3, §4

The mark [1] stands for this setting: test concentration 0.2 μM (superscript a).
Setting [2] is: read-out: CB1 binding percent inhibition.

Our source for the inhibition and IC50 values is patent US7524964B2, “Tetrahydrothiopyrano pyrazole cannabinoid modulators” (Janssen Pharmaceutica NV, priority 2005, dated 2009).

Structures are written as SMILES. Read-outs that look alike come from different tables or passages of the source.

The inhibition is how much of the control response was suppressed. One may read the IC50 as the point on the concentration scale where inhibition reaches its midpoint. Read a high IC50 as weaker potency.

Chain of human CB1 receptor (P21554 whole entry): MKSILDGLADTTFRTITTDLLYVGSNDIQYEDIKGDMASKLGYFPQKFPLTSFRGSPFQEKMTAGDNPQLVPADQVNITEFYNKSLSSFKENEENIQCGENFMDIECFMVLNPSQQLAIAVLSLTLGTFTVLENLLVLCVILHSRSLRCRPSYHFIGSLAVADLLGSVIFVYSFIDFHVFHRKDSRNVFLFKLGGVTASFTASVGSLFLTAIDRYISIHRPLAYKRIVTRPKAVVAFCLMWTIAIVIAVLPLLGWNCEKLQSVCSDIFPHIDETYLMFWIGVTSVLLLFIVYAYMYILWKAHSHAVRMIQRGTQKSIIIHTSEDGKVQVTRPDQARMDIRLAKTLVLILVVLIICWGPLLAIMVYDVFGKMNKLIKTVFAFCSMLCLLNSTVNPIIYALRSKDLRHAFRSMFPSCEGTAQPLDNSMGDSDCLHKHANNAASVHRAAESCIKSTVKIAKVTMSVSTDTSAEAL
T1 sequence (P34972 whole entry): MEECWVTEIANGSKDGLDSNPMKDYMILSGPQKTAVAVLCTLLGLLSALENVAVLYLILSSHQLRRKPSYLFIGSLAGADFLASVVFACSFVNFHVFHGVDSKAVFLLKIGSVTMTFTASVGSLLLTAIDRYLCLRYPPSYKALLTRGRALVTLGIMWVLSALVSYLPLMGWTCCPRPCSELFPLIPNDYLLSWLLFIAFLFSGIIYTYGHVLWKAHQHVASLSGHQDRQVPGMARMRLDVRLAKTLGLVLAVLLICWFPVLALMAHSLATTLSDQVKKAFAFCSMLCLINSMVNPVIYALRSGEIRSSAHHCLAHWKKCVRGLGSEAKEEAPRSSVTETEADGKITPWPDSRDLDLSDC

Regarding `C[C@@H](NC(=O)c1nn(-c2ccc(Cl)cc2Cl)c2c1CS(=O)(=O)C/C2=C\c1ccc(Cl)o1)c1ccccc1` [Cpd 117, (7Z)-7-(5-chloro-furan-2-ylmethylene)-1-(2,4-dichloro-phenyl)-5,5-dioxo-4,5,6,7-tetrahydro-1H-5λ^6-thiopyrano[4,3-c]pyrazole-3-carboxylic acid [(1R)-1-phenyl-ethyl]-amide], the inhibition at 0.2 µM on human CB-2 receptor worked out at 18%. Besides, on human CB1 receptor, the IC50 came out at 0.009 µM.
Regarding `O=C(NN1CCN(CCO)CC1)c1nn(-c2ccc(Cl)cc2Cl)c2c1CS(=O)(=O)C/C2=C\c1ccc(F)cc1` [Cpd 110, (7Z)-1-(2,4-dichloro-phenyl)-7-(4-fluoro-benzylidene)-5,5-dioxo-4,5,6,7-tetrahydro-1H-5λ^6-thiopyrano[4,3-c]pyrazole-3-carboxylic acid [4-(2-hydroxy-ethyl)-piperazin-1-yl]-amide], the inhibition at 0.2 µM at human CB-2 receptor (setting [1]) is 7%; at human CB1 receptor (setting [2]) it was 13%.
Consider `C[C@H](NS(=O)(=O)/C=C/c1c2c(nn1Cc1ccccc1)CCS(=O)(=O)C2)c1ccccc1` [Cpd 10, (E)-2-(2-benzyl-5,5-dioxo-4,5,6,7-tetrahydro-2H-5λ^6-thiopyrano[4,3-c]pyrazol-3-yl)-ethenesulfonic acid [(1S)-1-phenyl-ethyl]-amide], for which the inhibition at 1 µM came to 36% on human CB-2 receptor and 0% on human CB1 receptor (setting [2]).
On to `C[C@@H](NC(=O)c1c2c(nn1-c1ccc(Cl)cc1Cl)/C(=C/c1ccc(F)cc1)CSC2)c1ccccc1` [Cpd 78, (7Z)-2-(2,4-dichloro-phenyl)-7-(4-fluoro-benzylidene)-2,4,6,7-tetrahydro-thiopyrano[4,3-c]pyrazole-3-carboxylic acid [(1R)-1-phenyl-ethyl]-amide], for which the figures for the inhibition at 0.2 µM on human CB-2 receptor (setting [1]) and at human CB1 receptor (setting [2]) were 11% and 62%, respectively.
On to `CC(NS(=O)(=O)/C=C/c1c2c(nn1Cc1ccccc1)CC[S+]([O-])C2)c1ccccc1` (stereo not drawn) [Cpd 22, (E)-2-(2-benzyl-5-oxo-4,5,6,7-tetrahydro-2H-5λ^4-thiopyrano[4,3-c]pyrazol-3-yl)-ethenesulfonic acid (1-phenyl-ethyl)-amide], for which the inhibition at 1 µM at human CB-2 receptor turned out to be 0%; at human CB1 receptor (setting [2]) it was 11%. Besides, the inhibition at 10 µM at human CB-2 receptor (test concentration 10 μM (superscript c)) amounted to 2%; on human CB1 receptor (test concentration 10 μM (superscript c), read-out: CB1 binding percent inhibition), 0%.
`O=C(NN1CCCCC1)c1nn(-c2ccc(Cl)cc2Cl)c2c1C[S+]([O-])C/C2=C\c1ccc(F)cc1` (stereo not drawn) [Cpd 79, (7Z)-1-(2,4-dichloro-phenyl)-7-(4-fluoro-benzylidene)-5-oxo-4,5,6,7-tetrahydro-1H-5λ^4-thiopyrano[4,3-c]pyrazole-3-carboxylic acid piperidin-1-ylamide]: the inhibition at 0.2 µM at human CB-2 receptor (setting [1]) came to 10%. On human CB1 receptor, this molecule came in with an IC50 of 0.16 µM.
For `O=C(c1nn(-c2ccc(Cl)cc2Cl)c2c1CSC/C2=C\c1ccc(F)cc1)N1CCCC1` [Cpd 57, (7Z)-[1-(2,4-dichloro-phenyl)-7-(4-fluoro-benzylidene)-1,4,6,7-tetrahydro-thiopyrano[4,3-c]pyrazol-3-yl]-pyrrolidin-1-yl-methanone], the inhibition at 0.2 µM was determined as 21% at human CB-2 receptor (setting [1]) and 56% at human CB1 receptor (setting [2]).
For `C[C@H](NS(=O)(=O)/C=C/c1nn(-c2ccc(Cl)cc2Cl)c2c1CSCC2Cc1cccc(Cl)c1)c1ccccc1` (stereo partly drawn) [Cpd 46, (E)-2-[7-(3-chloro-benzyl)-1-(2,4-dichloro-phenyl)-1,4,6,7-tetrahydro-thiopyrano[4,3-c]pyrazol-3-yl]-ethenesulfonic acid [(1S)-1-phenyl-ethyl]-amide], in that order: 18% and 43%.
`C[C@H](NC(=O)c1c2c(nn1-c1ccc(Cl)cc1Cl)/C(=C/c1ccc(F)cc1)CS(=O)(=O)C2)C1CCCCC1` [Cpd 85, (7Z)-2-(2,4-dichloro-phenyl)-7-(4-fluoro-benzylidene)-5,5-dioxo-4,5,6,7-tetrahydro-2H-5λ^6-thiopyrano[4,3-c]pyrazole-3-carboxylic acid [(1S)-1-cyclohexyl-ethyl]-amide]: the inhibition at 0.2 µM at human CB-2 receptor (setting [1]) amounted to 20%. This molecule also displayed a half-inhibitory concentration (IC50) at human CB1 receptor of 0.035 µM.
For the molecule `CN1CCN(NC(=O)c2nn(-c3ccc(Cl)cc3Cl)c3c2CSC/C3=C\c2ccc(F)cc2)CC1` [Cpd 113, (7Z)-1-(2,4-dichloro-phenyl)-7-(4-fluoro-benzylidene)-1,4,6,7-tetrahydro-thiopyrano[4,3-c]pyrazole-3-carboxylic acid (4-methyl-piperazin-1-yl)-amide], the results for the inhibition at 0.2 µM at human CB-2 receptor (setting [1]) and on human CB1 receptor (setting [2]) were 0% and 17%, respectively.
As for `C[C@H](NC(=O)c1c2c(nn1-c1ccc(Cl)cc1Cl)/C(=C/c1ccc(F)cc1)CSC2)C1CCCCC1` [Cpd 90, (7Z)-2-(2,4-dichloro-phenyl)-7-(4-fluoro-benzylidene)-2,4,6,7-tetrahydro-thiopyrano[4,3-c]pyrazole-3-carboxylic acid [(1S)-1-cyclohexyl-ethyl]amide], the inhibition at 0.2 µM stood at 18% at human CB-2 receptor (setting [1]) and 31% on human CB1 receptor (setting [2]).
For `C[C@H](NS(=O)(=O)/C=C/c1c2c(nn1Cc1ccccc1)CCSC2)c1ccccc1` [Cpd 5, (E)-2-(2-benzyl-2,4,6,7-tetrahydro-thiopyrano[4,3-c]pyrazol-3-yl)-ethenesulfonic acid [(1S)-1-phenyl-ethyl]-amide], the inhibition at 1 µM at human CB-2 receptor and on human CB1 receptor (setting [2]) was 9% throughout.
For `C[C@@H](NS(=O)(=O)/C=C/c1nn(Cc2ccccc2)c2c1CS(=O)(=O)CC2)C1CCCCC1` [Cpd 14, (E)-2-(1-benzyl-5,5-dioxo-4,5,6,7-tetrahydro-1H-5λ^6-thiopyrano[4,3-c]pyrazol-3-yl)-ethenesulfonic acid [(1R)-1-cyclohexyl-ethyl]-amide], the inhibition at 1 µM at human CB-2 receptor and at human CB1 receptor (setting [2]) was 0% each time.
`C[C@@H](NS(=O)(=O)/C=C/c1n[nH]c2c1CSCC2Cc1cccc(F)c1)C1CCCCC1` (stereo partly drawn) [Cpd 48, (E)-2-[7-(3-fluoro-benzyl)-1,4,6,7-tetrahydro-thiopyrano[4,3-c]pyrazol-3-yl]-ethenesulfonic acid [(1R)-1-cyclohexyl-ethyl]-amide]: the inhibition at 0.2 µM at human CB-2 receptor (setting [1]) was 11%; on human CB1 receptor (setting [2]) it was 15%.
For `C[C@@H](NS(=O)(=O)/C=C/c1nn(-c2ccc(F)cc2F)c2c1CSCC2Cc1cccc(F)c1)C1CCCCC1` (stereo partly drawn) [Cpd 39, (E)-2-[1-(2,4-difluoro-phenyl)-7-(3-fluoro-benzyl)-1,4,6,7-tetrahydro-thiopyrano[4,3-c]pyrazol-3-yl]-ethenesulfonic acid [(1R)-1-cyclohexyl-ethyl]-amide], in that order: 37% and 55%.
In the case of `O=C(NN1CCCCC1)c1nn(-c2ccc(Cl)cc2)c2c1CS(=O)(=O)C/C2=C\c1ccc(F)cc1` [Cpd 99, (7Z)-1-(4-chloro-phenyl)-7-(4-fluoro-benzylidene)-5,5-dioxo-4,5,6,7-tetrahydro-1H-5λ^6-thiopyrano[4,3-c]pyrazole-3-carboxylic acid piperidin-1-ylamide], the inhibition at 0.2 µM came out at 12% on human CB-2 receptor (setting [1]) and 66% on human CB1 receptor (setting [2]).
Turning to `O=C(NN1CCCC1)c1nn(-c2ccc(Cl)cc2Cl)c2c1CSC/C2=C\c1ccc(F)cc1` [Cpd 56, (7Z)-1-(2,4-dichloro-phenyl)-7-(4-fluoro-benzylidene)-1,4,6,7-tetrahydro-thiopyrano[4,3-c]pyrazole-3-carboxylic acid pyrrolidin-1-ylamide], at human CB-2 receptor (setting [1]), the inhibition at 0.2 µM was 15%. The IC50 on human CB1 receptor turned out to be 0.035 µM.
